The source made the active and inactive calls.
Tests used:
Large T antigen = Large T antigen (Simian virus 40, UniProt P03070); format: functional, Betapolyomavirus macacae;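 further: Confirmatory-stage PubChem screen for compounds that inhibit SV40 T antigen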
[1] = target: DNA dC->dU-editing enzyme APOBEC-3A (Homo sapiens, UniProt P31941); assay: APOBEC3A DNA deaminase inhibitors, dose response, biochemical (AID 504722); format: functional
Leucine aminopeptidase = target: T1, Leucine aminopeptidase (Plasmodium falciparum 3D7, UniProt Q8IL11); assay: P. falciparum M17LAP inhibitors, primary screen, biochemical, fluorogenic H-Leu-NHMec substrate, 1536-well (AID 1619); format: functional
T1 sequence (Q8IL11 whole entry): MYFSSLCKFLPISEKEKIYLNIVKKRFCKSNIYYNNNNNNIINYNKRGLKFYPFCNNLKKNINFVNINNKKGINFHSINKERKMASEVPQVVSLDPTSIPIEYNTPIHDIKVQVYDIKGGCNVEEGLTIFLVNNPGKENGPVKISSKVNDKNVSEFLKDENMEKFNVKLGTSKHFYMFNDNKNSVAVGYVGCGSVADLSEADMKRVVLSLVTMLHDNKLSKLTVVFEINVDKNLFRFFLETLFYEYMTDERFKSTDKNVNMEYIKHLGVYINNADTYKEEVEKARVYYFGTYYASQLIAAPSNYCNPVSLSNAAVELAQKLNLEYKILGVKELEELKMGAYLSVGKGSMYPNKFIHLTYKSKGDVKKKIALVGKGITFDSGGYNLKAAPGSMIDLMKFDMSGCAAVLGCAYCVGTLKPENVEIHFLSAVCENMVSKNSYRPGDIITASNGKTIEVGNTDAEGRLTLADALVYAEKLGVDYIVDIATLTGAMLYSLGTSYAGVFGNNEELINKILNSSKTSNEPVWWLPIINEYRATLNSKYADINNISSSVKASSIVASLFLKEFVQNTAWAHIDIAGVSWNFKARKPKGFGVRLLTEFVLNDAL

[2] = target: DNA dC->dU-editing enzyme APOBEC-3G (Homo sapiens, UniProt Q9HC16); assay: Dose Response confirmation of small molecule APOBEC3G DNA Deaminase Inhibitors via a fluorescence-based single-stranded DNA deaminase assay. [Related pubchem assays (depositor defined):AID493012, AID493028]; format: functional
Chain of DNA dC->dU-editing enzyme APOBEC-3G (Q9HC16 whole entry): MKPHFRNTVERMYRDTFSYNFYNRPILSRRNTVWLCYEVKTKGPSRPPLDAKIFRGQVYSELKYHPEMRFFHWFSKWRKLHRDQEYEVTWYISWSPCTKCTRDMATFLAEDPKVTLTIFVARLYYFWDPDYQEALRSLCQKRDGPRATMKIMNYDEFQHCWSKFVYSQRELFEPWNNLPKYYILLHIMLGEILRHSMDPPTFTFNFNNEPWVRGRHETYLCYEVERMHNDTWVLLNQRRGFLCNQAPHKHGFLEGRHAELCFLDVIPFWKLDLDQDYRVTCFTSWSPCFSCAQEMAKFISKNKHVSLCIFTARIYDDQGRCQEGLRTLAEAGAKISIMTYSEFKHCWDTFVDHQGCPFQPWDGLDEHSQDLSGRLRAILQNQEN

[3] = target: Heat shock protein HSP 90-alpha (Homo sapiens, UniProt P07900); format: functional, organism-based
[4] = Vero E6 cell cytotoxicity, dose response, cytotoxicity control for non-replicating M. tuberculosis project, secondary assay (AID 492998); format: functional, VeroE6; settings: Vero C1008
[5] = microbe, parasite or virus in culture; format: functional; settings: Mycobacterium tuberculosis
cells = format: functional
Genome polyprotein = Genome polyprotein (dengue virus type 2, UniProt P29990); assay: Dengue-2 NS5 methyltransferase inhibitors, primary screen, biochemical, confirmation dose response (AID 588689); format: functional
Chain of Genome polyprotein (P29990 2492-3391 limits assumed): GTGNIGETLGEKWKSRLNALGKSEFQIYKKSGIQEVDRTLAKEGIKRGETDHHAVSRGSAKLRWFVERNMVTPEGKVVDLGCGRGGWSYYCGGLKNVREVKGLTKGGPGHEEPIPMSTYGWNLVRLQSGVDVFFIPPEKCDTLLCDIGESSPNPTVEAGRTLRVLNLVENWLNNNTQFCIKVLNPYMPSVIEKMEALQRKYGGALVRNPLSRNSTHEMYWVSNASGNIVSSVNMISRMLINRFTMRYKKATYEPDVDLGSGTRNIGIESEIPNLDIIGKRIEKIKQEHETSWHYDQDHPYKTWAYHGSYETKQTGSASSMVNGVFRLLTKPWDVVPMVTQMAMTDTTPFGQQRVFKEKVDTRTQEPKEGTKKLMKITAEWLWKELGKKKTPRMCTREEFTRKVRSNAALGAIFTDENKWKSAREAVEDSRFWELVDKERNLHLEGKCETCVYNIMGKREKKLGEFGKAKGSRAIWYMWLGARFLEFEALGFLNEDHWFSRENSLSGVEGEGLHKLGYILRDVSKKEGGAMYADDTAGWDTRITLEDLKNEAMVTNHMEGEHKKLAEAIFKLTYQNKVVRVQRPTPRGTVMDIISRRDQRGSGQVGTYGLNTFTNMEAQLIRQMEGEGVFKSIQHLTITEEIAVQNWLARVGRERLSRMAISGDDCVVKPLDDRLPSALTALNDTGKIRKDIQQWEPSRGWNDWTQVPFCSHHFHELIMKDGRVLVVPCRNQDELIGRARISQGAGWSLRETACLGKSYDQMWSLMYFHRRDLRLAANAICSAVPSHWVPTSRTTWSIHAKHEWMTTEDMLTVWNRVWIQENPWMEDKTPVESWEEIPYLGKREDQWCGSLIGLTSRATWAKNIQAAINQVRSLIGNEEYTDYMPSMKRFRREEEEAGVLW

[6] = target: Beta-2 adrenergic receptor (Homo sapiens, UniProt P07550); assay: beta2AR agonists driving receptor internalization, dose response, cell-based, FAP fluorogen, flow cytometry, cherry pick 1 (AID 588763); format: functional
Chain of Beta-2 adrenergic receptor (P07550 whole entry): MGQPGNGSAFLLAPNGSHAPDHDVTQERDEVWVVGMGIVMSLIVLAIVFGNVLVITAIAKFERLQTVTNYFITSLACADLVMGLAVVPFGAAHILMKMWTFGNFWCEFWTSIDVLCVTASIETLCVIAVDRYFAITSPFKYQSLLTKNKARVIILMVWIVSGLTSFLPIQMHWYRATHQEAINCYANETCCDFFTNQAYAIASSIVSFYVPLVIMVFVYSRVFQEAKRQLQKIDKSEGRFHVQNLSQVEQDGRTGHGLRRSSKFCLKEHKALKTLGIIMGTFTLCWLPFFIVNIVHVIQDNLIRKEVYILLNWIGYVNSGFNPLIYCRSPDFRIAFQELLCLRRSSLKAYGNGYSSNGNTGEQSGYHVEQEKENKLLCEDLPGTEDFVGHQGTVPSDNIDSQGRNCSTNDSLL

Aminopeptidase N = target: T2, Aminopeptidase N (Plasmodium falciparum FcB1/Columbia, UniProt O96935); assay: P. falciparum M1AAP inhibitors, biochemical, fluorogenic H-Leu-NHMec substrate, 1536-well (AID 1445); design: species or system Plasmodium falciparum 3D7, 3D7
T2 sequence (O96935 whole entry): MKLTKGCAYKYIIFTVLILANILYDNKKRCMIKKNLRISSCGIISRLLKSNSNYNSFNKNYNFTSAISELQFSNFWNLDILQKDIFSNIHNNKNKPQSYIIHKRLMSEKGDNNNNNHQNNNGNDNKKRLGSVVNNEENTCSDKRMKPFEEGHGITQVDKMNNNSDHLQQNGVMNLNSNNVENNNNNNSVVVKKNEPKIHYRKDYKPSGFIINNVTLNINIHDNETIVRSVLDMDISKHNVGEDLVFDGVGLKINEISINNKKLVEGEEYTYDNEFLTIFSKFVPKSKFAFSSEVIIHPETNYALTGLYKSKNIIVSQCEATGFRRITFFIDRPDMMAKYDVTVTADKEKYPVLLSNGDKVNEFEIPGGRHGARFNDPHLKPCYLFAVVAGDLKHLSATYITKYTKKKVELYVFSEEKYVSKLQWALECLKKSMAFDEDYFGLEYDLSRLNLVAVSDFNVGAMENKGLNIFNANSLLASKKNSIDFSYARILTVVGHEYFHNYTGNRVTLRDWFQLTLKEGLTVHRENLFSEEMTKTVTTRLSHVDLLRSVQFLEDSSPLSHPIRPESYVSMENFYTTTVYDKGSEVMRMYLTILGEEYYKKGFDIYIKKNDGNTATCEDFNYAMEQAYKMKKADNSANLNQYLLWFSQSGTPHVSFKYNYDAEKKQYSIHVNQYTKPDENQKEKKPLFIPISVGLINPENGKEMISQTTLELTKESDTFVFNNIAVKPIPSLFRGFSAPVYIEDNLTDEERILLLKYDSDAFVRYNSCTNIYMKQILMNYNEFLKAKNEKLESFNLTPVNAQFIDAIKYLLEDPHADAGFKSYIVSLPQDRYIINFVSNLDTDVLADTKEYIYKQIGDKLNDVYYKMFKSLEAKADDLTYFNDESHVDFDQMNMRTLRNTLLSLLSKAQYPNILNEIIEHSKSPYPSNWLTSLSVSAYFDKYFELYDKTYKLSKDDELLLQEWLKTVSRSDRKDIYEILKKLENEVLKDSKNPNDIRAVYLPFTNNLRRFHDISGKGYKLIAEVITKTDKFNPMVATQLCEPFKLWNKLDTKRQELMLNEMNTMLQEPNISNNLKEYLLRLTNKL

[7] = target: T3, Short transient receptor potential channel 4 (Mus musculus, UniProt Q9QUQ5); assay: mouse TRPC4 channel activators, dose response, cell-based, HEK293 TRPC4/mu-opioid, Fluo-4 calcium (AID 434937); format: functional
T3 sequence (Q9QUQ5 whole entry): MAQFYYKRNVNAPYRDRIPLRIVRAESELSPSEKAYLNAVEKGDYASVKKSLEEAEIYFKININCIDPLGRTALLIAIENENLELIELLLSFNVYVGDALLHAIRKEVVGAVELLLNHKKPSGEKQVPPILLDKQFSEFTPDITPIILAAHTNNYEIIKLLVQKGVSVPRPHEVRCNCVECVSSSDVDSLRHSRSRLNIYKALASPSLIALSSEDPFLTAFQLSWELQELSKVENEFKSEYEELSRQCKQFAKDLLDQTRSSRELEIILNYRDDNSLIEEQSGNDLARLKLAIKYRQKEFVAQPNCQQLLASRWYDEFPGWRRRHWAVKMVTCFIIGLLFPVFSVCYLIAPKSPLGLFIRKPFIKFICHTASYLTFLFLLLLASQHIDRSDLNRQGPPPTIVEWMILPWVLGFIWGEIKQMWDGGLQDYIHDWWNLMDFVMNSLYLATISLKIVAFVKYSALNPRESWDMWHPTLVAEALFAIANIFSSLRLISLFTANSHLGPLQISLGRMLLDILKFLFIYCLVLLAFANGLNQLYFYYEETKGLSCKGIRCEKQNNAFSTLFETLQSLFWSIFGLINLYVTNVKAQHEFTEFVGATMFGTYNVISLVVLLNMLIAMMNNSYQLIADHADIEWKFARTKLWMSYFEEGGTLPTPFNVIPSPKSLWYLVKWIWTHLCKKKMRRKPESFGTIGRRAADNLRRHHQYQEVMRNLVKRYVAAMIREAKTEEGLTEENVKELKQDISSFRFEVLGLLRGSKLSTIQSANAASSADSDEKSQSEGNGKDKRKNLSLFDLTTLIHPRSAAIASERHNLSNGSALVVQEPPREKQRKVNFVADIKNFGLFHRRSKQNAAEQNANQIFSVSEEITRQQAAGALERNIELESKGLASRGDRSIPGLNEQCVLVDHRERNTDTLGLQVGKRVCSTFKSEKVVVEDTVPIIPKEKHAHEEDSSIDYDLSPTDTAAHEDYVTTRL

[8] = THP-1 cell cytotoxicity, dose response, cytotoxicity control for non-replicating M. tuberculosis project (AID 489025); format: functional
[9] = cytotoxicity in HEK-293T cells, dose response, cytotoxicity control for TCR NF-kB inhibitor project, luminescence, T-cell screen hits (AID 489026); format: functional, cell-based;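 further: cells exposed to compound about 14 hours before the viability readout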
[10] = Luminescence Cell-Based Dose Retest to Confirm Inhibitors of Cancer Stem Cells. [Related pubchem assays (depositor defined):AID2717, AID2721]; format: functional; settings: Homo sapiens
[11] = target: T4, Ubiquitin-conjugating enzyme E2 N (Homo sapiens, UniProt P61088); format: functional;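 further: Dose-response confirmation in a TR-FRET assay detecting UBC13-driven polyubiquitin chain formation, inhibition measured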
T4 sequence (P61088 whole entry): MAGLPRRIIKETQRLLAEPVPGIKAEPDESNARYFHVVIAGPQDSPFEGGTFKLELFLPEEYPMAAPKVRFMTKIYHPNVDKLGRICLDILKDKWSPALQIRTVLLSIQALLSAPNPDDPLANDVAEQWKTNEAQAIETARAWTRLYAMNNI

[12] = target: T5, Rac GTPase-activating protein 1 (Homo sapiens, UniProt Q9H0H5); assay: MgcRacGAP GTPase-activating activity inhibitors, confirmation, biochemical, ADP Hunter fluorescence, primary and confirmatory (AID 624330); format: functional
T5 sequence (Q9H0H5 whole entry): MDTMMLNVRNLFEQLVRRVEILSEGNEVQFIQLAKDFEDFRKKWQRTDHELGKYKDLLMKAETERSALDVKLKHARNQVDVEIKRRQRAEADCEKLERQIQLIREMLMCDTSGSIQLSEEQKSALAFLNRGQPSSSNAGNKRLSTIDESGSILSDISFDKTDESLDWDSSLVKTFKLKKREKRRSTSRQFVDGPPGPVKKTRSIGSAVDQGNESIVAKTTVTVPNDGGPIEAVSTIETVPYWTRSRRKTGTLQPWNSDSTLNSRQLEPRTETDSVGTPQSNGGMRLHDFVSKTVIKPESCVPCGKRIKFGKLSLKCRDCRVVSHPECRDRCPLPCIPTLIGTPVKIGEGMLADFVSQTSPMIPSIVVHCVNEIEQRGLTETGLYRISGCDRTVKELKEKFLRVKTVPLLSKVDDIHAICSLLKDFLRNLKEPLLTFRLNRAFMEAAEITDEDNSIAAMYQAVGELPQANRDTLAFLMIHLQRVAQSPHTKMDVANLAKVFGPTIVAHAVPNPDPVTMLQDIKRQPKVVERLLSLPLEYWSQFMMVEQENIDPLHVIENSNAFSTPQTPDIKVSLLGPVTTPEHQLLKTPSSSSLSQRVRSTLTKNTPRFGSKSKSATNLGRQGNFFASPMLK

Chain of DNA dC->dU-editing enzyme APOBEC-3A (P31941 whole entry): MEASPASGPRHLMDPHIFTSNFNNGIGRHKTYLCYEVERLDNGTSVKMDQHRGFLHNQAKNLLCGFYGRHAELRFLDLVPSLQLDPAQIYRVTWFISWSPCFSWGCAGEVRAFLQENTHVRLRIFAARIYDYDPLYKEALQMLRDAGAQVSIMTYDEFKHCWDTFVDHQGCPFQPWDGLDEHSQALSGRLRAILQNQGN
Chain of Large T antigen (P03070 whole entry): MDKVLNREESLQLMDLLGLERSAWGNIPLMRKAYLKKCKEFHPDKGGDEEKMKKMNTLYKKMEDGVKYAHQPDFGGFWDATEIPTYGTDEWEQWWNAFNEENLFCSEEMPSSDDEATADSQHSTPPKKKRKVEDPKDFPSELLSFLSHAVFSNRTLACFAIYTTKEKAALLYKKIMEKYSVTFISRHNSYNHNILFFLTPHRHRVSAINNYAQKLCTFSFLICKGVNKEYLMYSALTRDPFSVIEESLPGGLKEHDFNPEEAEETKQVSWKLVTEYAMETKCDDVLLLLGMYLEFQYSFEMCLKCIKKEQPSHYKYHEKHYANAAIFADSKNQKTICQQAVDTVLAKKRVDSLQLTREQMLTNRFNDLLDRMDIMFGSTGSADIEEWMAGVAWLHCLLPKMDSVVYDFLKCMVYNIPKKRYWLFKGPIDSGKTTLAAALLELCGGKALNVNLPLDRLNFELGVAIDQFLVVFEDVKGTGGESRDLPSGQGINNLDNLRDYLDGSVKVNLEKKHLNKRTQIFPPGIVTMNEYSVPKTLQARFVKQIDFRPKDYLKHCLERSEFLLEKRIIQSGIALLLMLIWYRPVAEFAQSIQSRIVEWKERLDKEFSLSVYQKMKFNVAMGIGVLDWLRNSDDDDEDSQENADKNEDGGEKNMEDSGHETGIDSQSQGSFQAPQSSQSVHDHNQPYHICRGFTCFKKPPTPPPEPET

Oc1ccc(-c2n[nH]c(=S)[nH]2)cc1
IC50 (Large T antigen): 6.95 µM (active) | IC50 [1]: > 100 µM (inactive) | IC50 (Leucine aminopeptidase): 20.6 µM (active) | IC50 [2]: 4.02 µM (active)

Cc1cccc(C)c1NC(=O)COC(=O)c1ccc([N+](=O)[O-])o1
AC50 [3]: 2.57 µM (active)

Cc1ccc(C)c(-c2nnc(NC(=O)C3=COCCO3)o2)c1
CC50 [4]: 19 µM (active) | CC50 [5]: > 40 µM (active) | IC50 (cells): 6.12 µM (active)

CN(C)c1ccc(C=C2C(=O)NC(=O)NC2=O)cc1[N+](=O)[O-]
IC50 (Genome polyprotein): 16.3 µM (active)

Cn1c(S)nnc1-c1cc2c(C(F)(F)F)nn(C)c2s1
IC50 [1]: > 100 µM (inactive) | IC50 [2]: 1.84 µM (active)

c1nc(NCCN2CCOCC2)c2sc3nc(N4CCOCC4)c4c(c3c2n1)CCC4
EC50 [6]: 3.34 µM (active)

Cc1ccc2c(c1)c1nnc(SCC(=O)N3CCCc4ccccc43)nc1n2CC(=O)O
IC50 (Aminopeptidase N): 26.8 µM (active)

O=C(c1sc2ccccc2c1Cl)N(Cc1cccs1)C1CCS(=O)(=O)C1 (stereo not given)
EC50 [7]: 1.88 µM (active)

O=C(NCc1cccs1)C1CCN(S(=O)(=O)c2cccs2)CC1
IC50 (Aminopeptidase N): 51.9 µM (active)

CCOC(=O)c1sc2nc(CSc3ccccc3)nc(NCCN(C)C)c2c1C
CC50 [4]: 17.8 µM (active) | CC50 [8]: 31.2 µM (active) | IC50 (cells): 22.5 µM (active)

C/C=C(\C)C(=O)N[C@@H](c1ccccc1)[C@@H](O)C(=O)O[C@H]1C[C@@]2(O)[C@@H](OC(=O)c3ccccc3)C3[C@](C)(C(=O)[C@H](O)C(=C1C)C2(C)C)[C@@H](O)C[C@H]1OC[C@@]31OC(C)=O (stereo not given in full)
IC50 [9]: > 80 µM (inactive)

O=C(Nc1ccc(Cl)cc1Cl)c1cccc(N2C(=O)C=CC2=O)c1
IC50 [1]: > 100 µM (inactive) | IC50 [2]: 13.8 µM (active) | AC50 [3]: 0.295 µM (active) | CC50 [8]: > 40 µM (active)

CN(CC(=O)Nc1cccc(F)c1)C(=O)c1cn(-c2ccccc2)nc1-c1ccc(Cl)cc1
AC50 [10]: 2.93 µM (active) | AC50 [3]: 8.31 µM (active)

O=C(Nc1ccccc1)c1ccccc1CCc1ccccc1
EC50 [6]: 1.7 µM (active)

CSc1ccc(CNC(=O)c2ccc(NC(=O)C3=CSCCO3)cc2)cc1
EC50 [6]: 0.0482 µM (active)

COC(=O)c1[nH]c2ccc(F)cc2c1NS(=O)(=O)c1ccc(OC)cc1
IC50 [9]: > 80 µM (inactive)

O=C(OCc1cccc([N+](=O)[O-])c1)c1cccnc1Cl
IC50 [11]: > 20 µM (inactive)

COC(=O)NCC(c1ccc2c(c1)OCO2)N1CCN(c2ccc(OC)cc2)CC1 (stereo not given)
EC50 [7]: 0.944 µM (active) | IC50 [12]: 123 µM (active)

CCc1ccc2nc(SCC(=O)Nc3ccccc3N3CCOCC3)c(C#N)cc2c1
AC50 [10]: 2.39 µM (active) | IC50 [9]: > 80 µM (inactive)

Cn1cncc1C#Cc1c(-c2ccsc2)sc2ccccc12
AC50 [10]: 4.68 µM (active) | AC50 [3]: 7.16 µM (active)

CC[C@@H](C)[C@@H]1CN([C@@H](C)CN2CCC[C@H]2CN2C(N)=NC[C@@H]2Cc2ccccc2)C(=N)N1CCCC1CCCC1
IC50 [11]: > 20 µM (inactive)

CN(C)c1ccc(/C=N/n2c(S)nnc2-c2cccnc2)cc1
IC50 [1]: > 100 µM (inactive) | IC50 [2]: 2.56 µM (active)

Cc1ccsc1/C=N/n1c(S)nnc1-c1ccncc1
IC50 [1]: > 100 µM (inactive) | IC50 [2]: 2.45 µM (active)
